# Assay results published in patent US8076144B2, “Protocol for risk stratification of ischemic events and optimized individualized treatment” (Cora Healthcare, Inc., priority 1999, dated 2011).
# System: whole blood clot formation
# Test: Ecarin-activated TEG hemostasis analysis of recalcified sodium-citrated samples taken before and after in vivo anticoagulation therapy
# Parameters: species or system human
# Conditions: 14b
# Excerpt: One exemplary protocol utilizes a sample, e.g., sample 13, that is obtained from a subject prior to administration of the anticoagulation therapy. Another sample is obtained at a first time period following administration of an anticoagulation therapy such as a direct thrombin inhibitor therapy like bivalirudin, heparin or warfarin. Each sample may be obtained into sodium citrate.
# The sodium-citrated samples are recalcified, and an additional reagent is provided such as a prothrombin activator such as ecarin. The hemostasis analyzer 10 is used to measure the time to initial clot formation, R. FIG. 13 illustrates data for a sample of subjects showing time to initial clot formation R before in vivo administration of the anticoagulation therapy and after in vivo administration of the anticoagulation therapy. FIGS. 14a and 14b illustrate tracings and, respectively, showing a typical set of hemostasis parameter data before in vivo administration of the anticoagulation therapy and after in vivo administration of the anticoagulation therapy. […] Importantly, there exists correlation between the delay in initial clot formation and the dosing of the anticoagulation therapy. […]
substance,measurement,setting,value
bivalirudin,delay in onset of clot formation (time to initial clot formation R),"samples from subjects before vs after in vivo administration, recalcified citrated blood with ecarin, FIGS. 13, 14a",direct relationship to bivalirudin dosing
same,"rate of clot formation α, clot strength MA and lysis LY30","tracings before and after in vivo administration, FIGS. 14a",within expected norms
